{
  "source": "patent US20220322673A1",
  "about": "“Novel Agrochemical Combinations” (UPL LIMITED, priority 2019, published 2022)",
  "type_in_all_cases": "in vivo",
  "key": {"Okra Aphids": {"system": "Okra Aphids", "assay": "Trials of Flonicamid and Orthosilicic acid on controlling Okra Aphids (Example 1)", "details": "doses gm/ha: OSA + Flonicamid 625 + 50, Flonicamid 75, OSA 1250", "procedure": "Trials were conducted to test the efficacy of the combination of Flonicamid and Orthosilicic acid on controlling Okra Aphids at different dosages."}, "Okra Mites": {"system": "Okra Mites", "assay": "Trials on controlling Okra Mites post 2nd and 3rd application (Example 2)", "details": "doses gm/ha: OSA 625 + Flonicamid 50 / Acetamipirid 50 / Lancer Gold 650, solo OSA 1250, Flonicamid 75, Acetamipirid 50, Lancer gold 650", "procedure": "Trials were conducted to test the efficacy of the combination of Flonicamid and Orthosilicic acid on controlling Okra Mites at different dosages post 2nd and 3rd application."}, "[1]": {"system": "Corn FAW (Spodoptera frugiperda)", "details": "for Percent control (%) A01: A01 = 1 day after first spray; for Percent control (%) A14: A14 = 14 days after 1st spray; for Percent control (%) B03: B03 = 3 days after 2nd spray; for Percent control (%) B07: B07 (after 2nd spray); for Percent control (%) B10: B10 (after 2nd spray); for Percent control (%) B21: B21 (after 2nd spray)", "source_text": "Application method: Two applications (application A and B) within an interval of 14 days. A01=1 day after first spray, A14=14 days after 1st spray, B03=3 days after 2nd spray."}, "[2]": {"system": "Okra Aphids (Aphis gossypii)", "details": "for Percent control (%) of Okra Aphids, Nymphs + Adults, A01: A01 = 1 day after first spray; for Percent control (%) of Okra Aphids, Nymphs + Adults, B03: B03 = 3 days after 2nd spray; for Percent control (%) of Okra Aphids, Nymphs + Adults, B07: B07 (after 2nd spray); for Percent control (%) of Okra Aphids, Nymphs + Adults, B10: B10 (after 2nd spray); for Percent control (%) of Okra Aphids, Nymphs + Adults, C03: C03 = 3 days after third spray; for Percent control (%) of Okra Aphids, Nymphs + Adults, C10: C10 (after third spray)", "source_text": "(§1) In this evaluation, feeding damage & insect population on Okra Leaves before and after sprays is averaged and analyzed for the test of significance. Application method: Three applications (application A, B and C) within an interval of 14 days."}, "[3]": {"system": "Okra Jassids (Amrasca bigutulla bigutulla)", "details": "for Percent control (%) of Okra Jassids, Nymphs + Adults, A01: A01 = 1 day after first spray; for Percent control (%) of Okra Jassids, Nymphs + Adults, A10: A10 (after 1st spray); for Percent control (%) of Okra Jassids, Nymphs + Adults, B03: B03 = 3 days after 2nd spray; for Percent control (%) of Okra Jassids, Nymphs + Adults, B07: B07 (after 2nd spray); for Percent control (%) of Okra Jassids, Nymphs + Adults, B10: B10 (after 2nd spray); for Percent control (%) of Okra Jassids, Nymphs + Adults, B14: B14 (after 2nd spray); for Percent control (%) of Okra Jassids, Nymphs + Adults, C03: C03 = 3 days after third spray; for Percent control (%) of Okra Jassids, Nymphs + Adults, C10: C10 (after third spray)", "source_text": "as §1"}, "[4]": {"details": "25% reduced dose of insecticide, gm a.i./ha: OSA 25, CTPR 22.5, Acephate 730, Novaluron 56, Novaluron+Lambda cyhalothrin 67.5, Novaluron+Emamectin 93.5"}, "[5]": {"details": "doses gm a.i./ha: OSA 25, CTPR 30, Acephate 970, Novaluron 75, Novaluron+Lambda cyhalothrin 90, Novaluron+Emamectin 125"}, "[6]": {"details": "doses gm a.i./ha: OSA 25, Flonicamid 100, Acephate+Imidacloprid 520, Flonicamid+Fipronil 100+50, Imidacloprid 24.5, Acetamiprid 15"}, "[7]": {"details": "reduced insecticide dose, gm a.i./ha: OSA 25, Flonicamid (Ulala) 75, Acephate+Imidacloprid 390, Flonicamid+Fipronil 75+37.5, Imidacloprid 18.3, Acetamiprid 11.2"}, "[8]": {"details": "25% reduced dose rate, gm a.i./ha: OSA 25, Flonicamid 75, Acephate+Imidacloprid 390, Flonicamid+Fipronil 75+37.5, Imidacloprid 18.3, Acetamiprid 11.2"}},
  "note": "Where two headings read alike, the source gives them in different places.",
  "data": [
    {"substance": "orthosilicic acid [OSA]", "values": [
      {"measurement": "Percent control B01", "setting": "Okra Aphids; B01", "value": 29.6, "unit": "%"},
      {"measurement": "Percent control C-01", "setting": "Okra Aphids; C-01", "value": 23.3, "unit": "%"},
      {"measurement": "Percent control C-10", "setting": "Okra Aphids; C-10", "value": 26.7, "unit": "%"},
      {"measurement": "Percent control Mean", "setting": "Okra Aphids; Mean of B01, C-01, C-10", "value": 26.53, "unit": "%"},
      {"measurement": "Percent control B07", "setting": "Okra Mites; B07", "value": 10, "unit": "%"},
      {"measurement": "Percent control C-01", "setting": "Okra Mites; C-01", "value": 19.3, "unit": "%"},
      {"measurement": "Percent control C-10", "setting": "Okra Mites; C-10", "value": 11.7, "unit": "%"},
      {"measurement": "Percent control Mean", "setting": "Okra Mites; Mean of B07, C-01, C-10", "value": 13.66, "unit": "%"},
      {"measurement": "Percent control (%) A01", "setting": "[1]; [4]", "value": 29.3, "unit": "%"},
      {"measurement": "Percent control (%) A01", "setting": "[1]; [5]", "value": 32.4, "unit": "%"},
      {"measurement": "Percent control (%) A14", "setting": "[1]; [4]", "value": 44.8, "unit": "%"},
      {"measurement": "Percent control (%) A14", "setting": "[1]; [5]", "value": 47.4, "unit": "%"},
      {"measurement": "Percent control (%) B03", "setting": "[1]; [4]", "value": 51.9, "unit": "%"},
      {"measurement": "Percent control (%) B03", "setting": "[1]; [5]", "value": 53.7, "unit": "%"},
      {"measurement": "Percent control (%) B07", "setting": "[1]; [4]", "value": 61.4, "unit": "%"},
      {"measurement": "Percent control (%) B07", "setting": "[1]; [5]", "value": 58.6, "unit": "%"},
      {"measurement": "Percent control (%) B10", "setting": "[1]; [4]", "value": 57.9, "unit": "%"},
      {"measurement": "Percent control (%) B10", "setting": "[1]; [5]", "value": 60.6, "unit": "%"},
      {"measurement": "Percent control (%) B21", "setting": "[1]; [4]", "value": 56.5, "unit": "%"},
      {"measurement": "Percent control (%) B21", "setting": "[1]; [5]", "value": 59.0, "unit": "%"},
      {"measurement": "Percent control (%) of Okra Aphids, Nymphs + Adults, A01", "setting": "[2]; [6]", "value": 32.3, "unit": "%"},
      {"measurement": "Percent control (%) of Okra Aphids, Nymphs + Adults, A01", "setting": "[2]; [7]", "value": 30.2, "unit": "%"},
      {"measurement": "Percent control (%) of Okra Aphids, Nymphs + Adults, A10", "setting": "[2]; A10 (after 1st spray), doses gm a.i./ha: OSA 25, Flonicamid 100, Acephate+Imidacloprid 520, Flonicamid+Fipronil 100+50, Imidacloprid 24.5, Acetamiprid 15", "value": 48.5, "unit": "%"},
      {"measurement": "Percent control (%) of Okra Aphids, Nymphs + Adults, A14", "setting": "[2]; A14 = 14 days after 1st spray, reduced insecticide dose, gm a.i./ha: OSA 25, Flonicamid (Ulala) 75, Acephate+Imidacloprid 390, Flonicamid+Fipronil 75+37.5, Imidacloprid 18.3, Acetamiprid 11.2", "value": 47, "unit": "%"},
      {"measurement": "Percent control (%) of Okra Aphids, Nymphs + Adults, B03", "setting": "[2]; [6]", "value": 52, "unit": "%"},
      {"measurement": "Percent control (%) of Okra Aphids, Nymphs + Adults, B03", "setting": "[2]; [7]", "value": 55, "unit": "%"},
      {"measurement": "Percent control (%) of Okra Aphids, Nymphs + Adults, B07", "setting": "[2]; [6]", "value": 56, "unit": "%"},
      {"measurement": "Percent control (%) of Okra Aphids, Nymphs + Adults, B07", "setting": "[2]; [7]", "value": 57.7, "unit": "%"},
      {"measurement": "Percent control (%) of Okra Aphids, Nymphs + Adults, B10", "setting": "[2]; [6]", "value": 56.1, "unit": "%"},
      {"measurement": "Percent control (%) of Okra Aphids, Nymphs + Adults, B10", "setting": "[2]; [7]", "value": 55.7, "unit": "%"},
      {"measurement": "Percent control (%) of Okra Aphids, Nymphs + Adults, C03", "setting": "[2]; [6]", "value": 57, "unit": "%"},
      {"measurement": "Percent control (%) of Okra Aphids, Nymphs + Adults, C03", "setting": "[2]; [7]", "value": 59.4, "unit": "%"},
      {"measurement": "Percent control (%) of Okra Aphids, Nymphs + Adults, C10", "setting": "[2]; [6]", "value": 59.7, "unit": "%"},
      {"measurement": "Percent control (%) of Okra Aphids, Nymphs + Adults, C10", "setting": "[2]; [7]", "value": 60.3, "unit": "%"},
      {"measurement": "Percent control (%) of Okra Jassids, Nymphs + Adults, A01", "setting": "[3]; [8]", "value": 27.9, "unit": "%"},
      {"measurement": "Percent control (%) of Okra Jassids, Nymphs + Adults, A01", "setting": "[3]; [6]", "value": 25.3, "unit": "%"},
      {"measurement": "Percent control (%) of Okra Jassids, Nymphs + Adults, A10", "setting": "[3]; [8]", "value": 37, "unit": "%"},
      {"measurement": "Percent control (%) of Okra Jassids, Nymphs + Adults, A10", "setting": "[3]; [6]", "value": 35.8, "unit": "%"},
      {"measurement": "Percent control (%) of Okra Jassids, Nymphs + Adults, B03", "setting": "[3]; [8]", "value": 40.9, "unit": "%"},
      {"measurement": "Percent control (%) of Okra Jassids, Nymphs + Adults, B03", "setting": "[3]; [6]", "value": 42.7, "unit": "%"},
      {"measurement": "Percent control (%) of Okra Jassids, Nymphs + Adults, B07", "setting": "[3]; [8]", "value": 47.9, "unit": "%"},
      {"measurement": "Percent control (%) of Okra Jassids, Nymphs + Adults, B07", "setting": "[3]; [6]", "value": 46.5, "unit": "%"},
      {"measurement": "Percent control (%) of Okra Jassids, Nymphs + Adults, B10", "setting": "[3]; [8]", "value": 48.6, "unit": "%"},
      {"measurement": "Percent control (%) of Okra Jassids, Nymphs + Adults, B10", "setting": "[3]; [6]", "value": 45.5, "unit": "%"},
      {"measurement": "Percent control (%) of Okra Jassids, Nymphs + Adults, B14", "setting": "[3]; [8]", "value": 43, "unit": "%"},
      {"measurement": "Percent control (%) of Okra Jassids, Nymphs + Adults, B14", "setting": "[3]; [6]", "value": 44.7, "unit": "%"},
      {"measurement": "Percent control (%) of Okra Jassids, Nymphs + Adults, C03", "setting": "[3]; [8]", "value": 45.5, "unit": "%"},
      {"measurement": "Percent control (%) of Okra Jassids, Nymphs + Adults, C03", "setting": "[3]; [6]", "value": 46.9, "unit": "%"},
      {"measurement": "Percent control (%) of Okra Jassids, Nymphs + Adults, C10", "setting": "[3]; [8]", "value": 49.1, "unit": "%"},
      {"measurement": "Percent control (%) of Okra Jassids, Nymphs + Adults, C10", "setting": "[3]; [6]", "value": 48.6, "unit": "%"}
    ]}
  ]
}
